Measurements taken from publication PMC6115017, “High-content imaging assay to evaluate Toxoplasma gondii infection and proliferation: A multiparametric assay to screen new compounds” (PLoS ONE, 2018).
Where two headings read alike, the source gives them in different places.

How the values were obtained:
[1] = test system: T. gondii proliferation (RH-YFP2 parasites in HFF); test: High Content Imaging (HCI) assay of T. gondii proliferation in HFF; settings: for inhibition at 10 µM / IC50 / inhibition at 20 µM: Toxoplasma gondii; for SI selectivity index: CV50/IC50: CV50 (HFF)/IC50 (T. gondii); for Parasite proliferation inhibition (PPI): tested at 10 μM, HFF infected with T. gondii, normalised to DMSO and 20 μM pyrimethamine
Method: The parasites were collected just after host cell lysis, centrifuged at 800 g for 5 min, suspended in D10 medium, and counted.
A pyrimethamine (Sigma-Aldrich) stock solution was prepared at 10 mM in DMSO and was used at the final concentration of at 20 μM as a positive control for anti-Toxoplasma activity. Forty-six molecules were tested to determine their anti-Toxoplasma activity. Each molecule was prepared as a 10 mM stock solution in DMSO and tested at 10 μM. The hits were then further tested at the dilutions 0.01 to 100 μM.
(§1) Cells were seeded at a density of 1.10^4 cells per well into 96-well plates, and allowed to grow for 48 h at 37°C and 5% CO2 to obtain sub-confluent HFF monolayers. Cells were then infected with 4.10^4 parasites per well. The plates were centrifuged for 1 min at 200 g and placed at 37°C, 5% CO2, for 2 h. After 3 washes in PBS, infected cells were incubated at 37°C, 5% CO2, for 30 hours with 200 μL of DMEM complete medium alone or supplemented with anti-Toxoplasma molecules, i.e. the reference drug pyrimethamine, or the tested molecules. These tested drugs were incubated at 10 μM in screening hit assays.
Imaging of 96-well plates was performed using a high content imaging system (Olympus ScanR). […] Twenty fields per well were imaged.
The acquired images were analyzed using the ScanR analysis software. This analysis aimed to identify the parasitophorous vacuoles (V), the parasites’ nuclei (P) and host cells’ nuclei (C).
A fixed threshold was set up (Fig 1C) and a watershed algorithm was applied to split apart two vacuoles that associated with one another (Fig 1C, white arrow). A binary mask was obtained (Fig 1D) and objects on the image border were excluded. Segmentation of the parasites’ nuclei (Fig 1E–1G, arrowhead) was performed with the Hoechst fluorescence pixels (Fig 1E). In order to properly separate parasites’ nuclei one from another, an important rolling ball background subtraction filter was applied (5 pixels). Both the brightness and the contrast of filtered images were adjusted manually. Parasites were selected with an edge segmentation algorithm with a minimum object size of 10 pixels and a maximum object size of 30 pixels (Fig 1F). The obtained binary image allowed a clear detection of the parasites (Fig 1G).
The vacuole mask was merged with that of the parasites to identify parasites inside their parasitophorous vacuole and to exclude extracellular parasites or host cell nuclei (Fig 1H).

[2] = test system: Human foreskin fibroblasts (HFF) host cells; test: Host cell viability in the HCI assay (host cell nuclei count); settings: 0.037 to 81 μM, 30 h
Method: as §1
• the T. gondii infection rate (V/C), calculated as the ratio between the number of parasitophorous vacuoles per well (V) divided by the number of host cells per well (C); • the T. gondii proliferation index (P/V), calculated as the ratio between the number of parasites per well (P) divided by the number of parasitophorous vacuoles per well; • the intra-vacuolar distribution of parasites (percentage of parasitophorous vacuoles containing either 1, 2, 4, or 8 parasites); • the parasite proliferation inhibition (PPI), calculated with the following formula: PPI=(1−((P/V[mol]−P/V[Pyr])/(P/V[DMSO]−P/V[Pyr])))x100 where P/V[Pyr] was the average proliferation rate of Toxoplasma in the presence of 20 μM pyrimethamine, P/V[DMSO], the average proliferation rate of Toxoplasma in the presence of DMSO only and P/V[mol], the average proliferation rate of Toxoplasma in the presence of the tested molecule; • the cell viability (CV): (C [mol] / C[DMSO])x100, where C[mol] was the number of host cell nuclei per well containing the tested molecule and C[DMSO], the number of host cell nuclei per well containing the DMSO control.
A selectivity index activity (SI) was calculated as SI = CV50/IC50.

RH-YFP2 parasites in HFF = test: [3H]-uracil incorporation assay of T. gondii proliferation; type: cell-based; settings: Toxoplasma gondii; 20 μM pyrimethamine, 30 h in HFF; 100% proliferation = without pyrimethamine; 3 experiments; read-out: inhibition of parasite proliferation as determined by [3H]-uracil incorporation assay
Method: The intracellular growth of RH-YFP2 parasites in HFF was monitored by selective incorporation of [^3H]-uracil, as previously described. […] After several washes to eliminate extracellular parasites, infected cells were cultured for 30 h with […] of [^3H]-uracil per well. Monolayers were washed 3 times in phosphate buffered saline (PBS), disrupted with 500 μL of lysis/scintillation solution (Optiphase Supermix, Perkin Elmer, France) and their radioactivity was measured by liquid scintillation counting using a Wallac MicroBeta TriLux (Perkin Elmer) calibrated for [^3H]-uracil. Two experimental replicates were performed in each of the 3 separate experiments.

[3] = test system: Toxoplasma gondii parasites in HFF; test: Manual microscopic counting of T. gondii proliferation; settings: 30 h, read-out: inhibition of parasite proliferation as determined by manual microscopic observations
Method: as §1
Parasitophorous vacuoles, parasites and host cells were manually counted on the set of images provided by the Olympus IX81 microscope. Three different experiments were performed.
After 30 h of parasite culture in HFF, the total numbers of parasitophorous vacuoles and parasites were counted in wells with or without 20 μM pyrimethamine from 3 different experiments. The 100% proliferation corresponds to the number of parasites per well without pyrimethamine.

[4] = 30 h, read-out: Parasite proliferation inhibition (PPI)
[5] = 30 h, read-out: IC50: concentration to inhibit 50% of T. gondii proliferation

O=C1/C(=C/c2ccc(Br)cc2)Oc2cc(O)cc(O)c21 [AU7]
inhibition at 10 µM [1, 4]: 0%

COc1cccc(OC)c1/C=C/C(=O)c1c(OC)cccc1OC [CH1]
inhibition at 10 µM [1, 4]: 0%

COc1cccc(OC)c1/C=C/C(=O)c1ccccc1 [CH4]
inhibition at 10 µM [1, 4]: 29%

COc1ccc(C(=O)/C=C/c2ccc(OC)c(OC)c2)c(O)c1 [CH5]
inhibition at 10 µM [1, 4]: 3%

COc1ccc(C(=O)/C=C/c2cc(OC)c(OC)c(OC)c2)c(O)c1 [CH9]
CV50: concentration to inhibit the viability of 50% of host cells [2]: >81 µM
SI selectivity index: CV50/IC50 [1]: >12.3
IC50 [1, 5]: 6600 ± 1500 nM
inhibition at 10 µM [1, 4]: 93%
Parasite proliferation inhibition (PPI) ([1]; 30 h): high proliferation inhibition activity

COc1cc(/C=C/C(=O)c2ccc(OC)cc2O)cc(OC)c1 [CH12]
inhibition at 10 µM [1, 4]: 73%

COc1ccc(-c2nnc(-c3ccccc3OC)o2)cc1 [DO3]
CV50: concentration to inhibit the viability of 50% of host cells [2]: >81 µM
SI selectivity index: CV50/IC50 [1]: >3
IC50 [1, 5]: 27700 ± 6200 nM
inhibition at 10 µM [1, 4]: 81%
Parasite proliferation inhibition (PPI) ([1]; 30 h): high proliferation inhibition activity

COc1ccc(-c2nnc(-c3ccc(OC)cc3)o2)cc1 [DO4]
inhibition at 10 µM [1, 4]: 0%

COc1ccccc1-c1nnc(-c2ccccc2)o1 [DO6]
inhibition at 10 µM [1, 4]: 0%

COc1ccc(-c2nnc(-c3ccccc3)o2)c(OC)c1 [DO8]
inhibition at 10 µM [1, 4]: 0%

c1ccc(-c2nnc(-c3ccccc3)o2)cc1 [DO9]
inhibition at 10 µM [1, 4]: 0%

Oc1ccc(-c2nnc(-c3ccccc3)o2)cc1 [DO10]
inhibition at 10 µM [1, 4]: 0%

Oc1ccc(-c2nnc(-c3ccccc3)o2)c(O)c1 [DO11]
inhibition at 10 µM [1, 4]: 0%

Oc1ccccc1-c1nnc(-c2ccccc2)o1 [DO12]
inhibition at 10 µM [1, 4]: 5%

Oc1ccc(-c2nnc(-c3ccc(O)cc3O)o2)cc1 [DO13]
inhibition at 10 µM [1, 4]: 0%

Oc1ccc(-c2nnc(-c3ccc(O)cc3)o2)cc1 [DO14]
inhibition at 10 µM [1, 4]: 0%

CCc1nc(N)nc(N)c1-c1ccc(Cl)cc1 [pyrimethamine, reference compound]
inhibition at 20 µM (RH-YFP2 parasites in HFF): 43.2%
inhibition at 20 µM [3]: 25%
CV50: concentration to inhibit the viability of 50% of host cells [2]: >81 µM
SI selectivity index: CV50/IC50 [1]: >202
IC50 ([1]; 24 h, read-out: IC50 of pyrimethamine, reproducibility): 600 nM
IC50 [1, 5]: 400 ± 30 nM
inhibition at 20 µM [1, 4]: 100%
inhibition at 20 µM ([1]; 30 h, read-out: inhibition of parasite proliferation as determined by HCI): 25.2%
IC50 ([1]; 72 h, read-out: IC50 of pyrimethamine, reproducibility): 440 nM
